SMILES strings stand for the structures. Structures can show the parent of a compound that is named as a salt.

T1 sequence (P25103 whole entry): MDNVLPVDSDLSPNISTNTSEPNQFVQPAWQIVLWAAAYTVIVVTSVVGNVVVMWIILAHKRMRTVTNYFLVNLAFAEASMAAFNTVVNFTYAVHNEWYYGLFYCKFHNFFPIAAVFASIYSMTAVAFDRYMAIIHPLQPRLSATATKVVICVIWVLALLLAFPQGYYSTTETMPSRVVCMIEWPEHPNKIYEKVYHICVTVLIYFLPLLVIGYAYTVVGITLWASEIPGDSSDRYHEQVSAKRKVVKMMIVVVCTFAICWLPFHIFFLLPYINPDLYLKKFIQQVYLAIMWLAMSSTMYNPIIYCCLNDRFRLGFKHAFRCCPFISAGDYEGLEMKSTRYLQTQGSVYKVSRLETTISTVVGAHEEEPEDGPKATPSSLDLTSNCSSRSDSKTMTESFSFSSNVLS

The test concerns the target T1, NK1 receptor (Homo sapiens, UniProt P25103).
T1 construct: Measurement of NK1 Receptor Mediated Intracellular [Ca^2+]; Mobilization in U251 MG Cells Using FLIPR; endogenous in cells; host or cells: U251 MG cells
Kind of test: NK1 receptor mediated intracellular [Ca2+] mobilization in U251 MG cells using FLIPR. It counts as cell-based. As to conditions: antagonist potency against Substance P (EC80), normalized to 100 nM Aprepitant, read-out: U251MG (FLIPR pIC50) (converted). How it is done: Measurement of NK1 Receptor Mediated Intracellular [Ca^2+] Mobilization in U251 MG Cells Using FLIPR
U251 MG cells were seeded into black walled clear-bottom 384-well plates (Greiner Bio-One GmbH, Frickenhausen, Germany) at a density of 15,000 cells/well in 50 μl culture medium and cultured overnight in a 37° C. 5% CO2 incubator. The cells were then loaded with the calcium sensitive dye Fluo-4 (Invitrogen) at 1 μM in buffer, containing 0.04%
Pluronic F-127 (Sigma-Aldrich), and 2.5 mM probenecid (Sigma-Aldrich) for 60 min in a humidified atmosphere of 5% CO2. Thereafter, cells were washed three times in washing buffer containing 20 mM HEPES and 2.5 mM probenecid pH 7.3. Serial dilutions of test compounds in assay buffer containing 2% dimethyl sulfoxide (final concentration in the cell plate is 0.5% DMSO) and/or agonist were then automatically pipetted into each test well, and the peak fluorescence intensity was recorded (lex, 488 nm; lem, 540 nm) by the FLIPR instrument (Molecular Devices) for approximately 5 min. To measure antagonist potency, cell plates were first incubated with the test compound and intracellular fluorescence recorded for 5 minutes to check a potential agonist effect of the test compound. Cell plates were quickly removed from the FLIPR instrument and incubated for additional 10 minutes at 37° C. before being moved back to the FLIPR instrument for Substance P (EC80) addition. The response was measured as the peak relative fluorescence change after agonist addition.
The IC50 value is defined as the molar concentration of a test compound that produces a response midway between the fitted top and the fitted bottom. pIC50=−log IC50
Formula is listed as follows: Fit(% Effect calculated)=(A+((B−A)/(1+((C/X)^D)))) • A: bottom value • B: top value • C: […] • D: Hill slope coefficient
Ref: Sullivan E, Tucker E M, and Dale I L. Measurement of [Ca^2+] using the Fluorometric Imaging Plate Reader (FLIPR). Methods Mol Biol 114:125-133, 1999.
Compounds of the present invention were tested according to example 120.
For the molecule `Cc1ccccc1C1C2CC(CO)C(=O)N2CCN1C(=O)N(C)Cc1cc(C(F)(F)F)cc(C(F)(F)F)c1` (single isomer, unassigned) [Compound 21, N-{[3,5-bis(trifluoromethyl)phenyl]methyl}-7-(hydroxymethyl)-N-methyl-1-(2-methylphenyl)-6-oxo-octahydropyrrolo[1,2-a]piperazine-2-carboxamide], the IC50 was 0.0407 nM.
In the case of `Cc1ccccc1C1C2CC(C)(C(=O)O)C(=O)N2CCN1C(=O)N(C)Cc1cc(C(F)(F)F)cc(C(F)(F)F)c1` (stereo not shown) [Compound 8, 2-({[3,5-bis(trifluoromethyl)phenyl]methyl}(methyl)carbamoyl)-7-methyl-1-(2-methylphenyl)-6-oxo-octahydropyrrolo[1,2-a]piperazine-7-carboxylic acid] it was 61.7 nM; in that of `Cc1ccccc1C1C2CC(CCO)(CCO)C(=O)N2CCN1C(=O)N(C)Cc1cc(C(F)(F)F)cc(C(F)(F)F)c1` (racemic) [Compound 42, N-{[3,5-bis(trifluoromethyl)phenyl]methyl}-7,7-bis(2-hydroxyethyl)-N-methyl-1-(2-methylphenyl)-6-oxo-octahydropyrrolo[1,2-a]piperazine-2-carboxamide], 0.0955 nM.
As for `Cc1ccccc1[C@H]1[C@@H]2CC(CCO)(CCO)C(=O)N2CCN1C(=O)N(C)Cc1cccc(C(F)(F)F)c1` [Compound 80, (1S,8aS)-7,7-bis(2-hydroxyethyl)-N-methyl-6-oxo-1-o-tolyl-N-(3-(trifluoromethyl)benzyl)hexahydropyrrolo[1,2-a]pyrazine-2(1H)-carboxamide], the figure is 0.468 nM.
In the case of `Cc1ccccc1C1C2CC(CCO)CN2CCN1C(=O)N(C)C(CCO)c1cc(C(F)(F)F)cc(C(F)(F)F)c1` (stereo not shown) [Compound 36, N-{1-[3,5-bis(trifluoromethyl)phenyl]-3-hydroxypropyl}-7-(2-hydroxyethyl)-N-methyl-1-(2-methylphenyl)-octahydropyrrolo[1,2-a]piperazine-2-carboxamide] it was 0.724 nM; in that of `Cc1ccccc1[C@H]1[C@@H]2CC(CCO)(CCO)C(=O)N2CCN1C(=O)N(C)C(CCO)c1cc(C(F)(F)F)cc(C(F)(F)F)c1` (single isomer, unassigned) [Compound 82], 0.112 nM; in that of `Cc1ccccc1C1C2CC(CO)C(=O)N2CCN1C(=O)N(C)[C@H](C)c1cc(C(F)(F)F)cc(C(F)(F)F)c1` (single isomer, unassigned) [Compound 57], 1.51 nM.
For the molecule `Cc1ccccc1C1C2CCC(=O)N2CCN1C(=O)N(C)Cc1cc(F)cc(C(F)(F)F)c1` (single isomer, unassigned) [Compound 4, N-{[3-fluoro-5-(trifluoromethyl)phenyl]methyl}-N-methyl-1-(2-methylphenyl)-6-oxo-octahydropyrrolo[1,2-a]piperazine-2-carboxamide], the IC50 was 81.3 nM.
As for `Cc1ccccc1C1C2CC(CO)CN2CCN1C(=O)N(C)[C@H](C)c1cc(C(F)(F)F)cc(C(F)(F)F)c1` (single isomer, unassigned) [Compound 68], the figure is 4.47 nM; as for `Cc1cc(C)cc(CN(C)C(=O)N2CCN3C(=O)CCC3C2c2ccccc2C)c1` (single isomer, unassigned) [Compound 1, N-[(3,5-dimethylphenyl)methyl]-N-methyl-1-(2-methylphenyl)-6-oxo-octahydropyrrolo[1,2-a]piperazine-2-carboxamide], 6.46 nM.
As for `Cc1ccccc1C1C2CCC(=O)N2CCN1C(=O)N(C)Cc1cc(C(F)(F)F)cc(C(F)(F)F)c1` (single isomer, unassigned) [Compound 17, N-{[3,5-bis(trifluoromethyl)phenyl]methyl}-N-methyl-1-(2-methylphenyl)-6-oxo-octahydropyrrolo[1,2-a]piperazine-2-carboxamide], the figure is 28.2 nM; as for `Cc1ccccc1C1C2CC(CN3CCOCC3)C(=O)N2CCN1C(=O)N(C)Cc1cc(C(F)(F)F)cc(C(F)(F)F)c1` (single isomer, unassigned) [Compound 51], 0.12 nM; as for `C=C1CC2C(c3ccccc3C)N(C(=O)N(C)Cc3cc(C(F)(F)F)cc(C(F)(F)F)c3)CCN2C1=O` (single isomer, unassigned) [Compound 32, N-{[3,5-bis(trifluoromethyl)phenyl]methyl}-N-methyl-7-methylidene-1-(2-methylphenyl)-6-oxo-octahydropyrrolo[1,2-a]piperazine-2-carboxamide], 0.437 nM.
In the case of `Cc1ccccc1C1C2CCCN2CCN1C(=O)N(C)Cc1cc(C(F)(F)F)cc(C(F)(F)F)c1` (single isomer, unassigned) [Compound 62, N-{[3,5-bis(trifluoromethyl)phenyl]methyl}-N-methyl-1-(2-methylphenyl)-octahydropyrrolo[1,2-a]piperazine-2-carboxamide] it was 0.955 nM; in that of `Cc1ccccc1C1C2CC(CO)CN2CCN1C(=O)N(C)Cc1cc(C(F)(F)F)cc(C(F)(F)F)c1` (single isomer, unassigned) [Compound 27, N-{[3,5-bis(trifluoromethyl)phenyl]methyl}-7-(hydroxymethyl)-N-methyl-1-(2-methylphenyl)-octahydropyrrolo[1,2-a]piperazine-2-carboxamide; methanesulfonic acid salt], 58.9 nM.
Turning to `COC(=O)C1(C)CC2C(c3ccccc3C)N(C(=O)N(C)Cc3cc(C(F)(F)F)cc(C(F)(F)F)c3)CCN2C1=O` (single isomer, unassigned) [Compound 12, Methyl 2-({[3,5-bis(trifluoromethyl)phenyl]methyl}(methyl)carbamoyl)-7-methyl-1-(2-methylphenyl)-6-oxo-octahydropyrrolo{1,2-a}piperazine-7-carboxylate], the IC50 is 1.78 nM.
In the case of `Cc1ccccc1C1C2CC3(CCN(C)CC3)C(=O)N2CCN1C(=O)N(C)Cc1cc(C(F)(F)F)cc(C(F)(F)F)c1` (single isomer, unassigned) [Compound 46, N-{[3,5-bis(trifluoromethyl)phenyl]methyl}-N,1-dimethyl-4′-(2-methylphenyl)-1′-oxo-hexahydro-1′H-spiro[piperidine-4,2′-pyrrolo[1,2-a]piperazine]-5′-carboxamide] it was 4.57 nM; in that of `Cc1cc(C)cc(CN(C)C(=O)N2CCN3C(=O)CCC3C2c2ccccc2C)c1` (single isomer, unassigned) [Compound 2, N-[(3,5-dimethylphenyl)methyl]-N-methyl-1-(2-methylphenyl)-6-oxo-octahydropyrrolo[1,2-a]piperazine-2-carboxamide], 77.6 nM.
Regarding `Cc1ccccc1C1C2CC(CO)CN2CCN1C(=O)N(C)[C@H](C)c1cc(C(F)(F)F)cc(C(F)(F)F)c1` (single isomer, unassigned) [Compound 70], the IC50 is 66.1 nM.
In the case of `Cc1ccccc1[C@H]1[C@@H]2CC(CCO)(CCO)C(=O)N2CCN1C(=O)N(C)[C@@H](CO)c1cc(C(F)(F)F)cc(C(F)(F)F)c1` [Compound 87, (1S,8aS)-N-((R)-1-(3,5-bis(trifluoromethyl)phenyl)-2-hydroxyethyl)-7,7-bis(2-hydroxyethyl)-N-methyl-6-oxo-1-o-tolylhexahydropyrrolo[1,2-a]pyrazine-2(1H)-carboxamide] it was 0.204 nM; in that of `COC(=O)C1(C)CC2C(c3ccccc3C)N(C(=O)N(C)Cc3cc(C(F)(F)F)cc(C(F)(F)F)c3)CCN2C1=O` (single isomer, unassigned) [Compound 14, Methyl 2-({[3,5-bis(trifluoromethyl)phenyl]methyl}(methyl)carbamoyl)-7-methyl-1-(2-methylphenyl)-6-oxo-octahydropyrrolo{1,2-a}piperazine-7-carboxylate], 0.0692 nM.
For `Cc1ccccc1C1C2CC(CN3CCOCC3)C(=O)N2CCN1C(=O)N(C)Cc1cc(C(F)(F)F)cc(C(F)(F)F)c1` (single isomer, unassigned) [Compound 39], the IC50 is 2.88 nM.
As for `COC(=O)C1(C)CC2C(c3ccccc3C)N(C(=O)N(C)Cc3cc(C(F)(F)F)cc(C(F)(F)F)c3)CCN2C1=O` (stereo not shown) [Compound 11, Methyl 2-({[3,5-bis(trifluoromethyl)phenyl]methyl}(methyl)carbamoyl)-7-methyl-1-(2-methylphenyl)-6-oxo-octahydropyrrolo{1,2-a}piperazine-7-carboxylate], the figure is 0.813 nM; as for `Cc1ccccc1C1C2CC(CO)CN2CCN1C(=O)N(C)[C@H](C)c1cc(C(F)(F)F)cc(C(F)(F)F)c1` (single isomer, unassigned) [Compound 67], 0.204 nM; as for `Cc1ccccc1C1C2CC(CN3CCOCC3)C(=O)N2CCN1C(=O)N(C)[C@H](C)c1cc(C(F)(F)F)cc(C(F)(F)F)c1` (single isomer, unassigned) [Compound 72], 8.13 nM.
